Reference: US20230056888A1, “COMPOSITIONS COMPRISING CYANIDIN-3-GALACTOSIDE FOR USE AS VASORELAXANT” (Evonik Operations GmbH, priority 2019, published 2023)
“Also recorded” adds a separate entry of the source.

Experiments:
[1] = system: NADPH oxidase; assay: NADPH oxidase activity (lucigenin-enhanced chemiluminescence) in mesenteric arteries after Angiotensin II; format: cell-based, mice; conditions: for NADPH oxidase (NOX) activity after stimulation with Angiotensin II: single anthocyanins 50 μg/mL, smaller reduction than Healthberry 865®
Experimental: Vessels were homogenized in a buffer containing protease inhibitors (mmol/L: 20 monobasic potassium phosphate, 1 EGTA, 0.01 aprotinin, 0.01 leupeptin, 0.01 pepstatin, 0.5 phenylmethylsulfonyl fluoride, pH 7.0). Protein content was measured in an aliquot of the homogenate by Bradford method. In some experiments, cells and vessels were pre-incubated with pharmacological inhibitors before measurements. The reaction was started by the addition of NADPH (0.1 mmol/l) and lucigenin (5 μmol/l) to each well. The chemiluminescence was measured using Tecan Infinite Pro M200 multimode microplate at 37° C.
(§1) Vessels were pre-treated with single anthocyanins (50 μg/mL) for 1 hours and then stimulated with Angiotensin II for 15 minutes prior to the acquisition. […] Data are expressed as increase of chemiluminescence per minute.
(§2) Data are expressed as increase of chemiluminescence per minute. Statistical analysis were performed using One-way ANOVA followed Bonferroni post-hoc test.

[2] = system: reactive oxygen species (ROS) in mouse mesenteric arteries; assay: Total ROS production (DHE / DHR123) in mesenteric arteries stimulated with Angiotensin II; format: cell-based; conditions: 50 μg/mL, 1 hour pre-treatment, then Angiotensin II 15 minutes, confirmed by DHR123
Experimental: Dihydroethidium (DHE, Life Technologies) was used to evaluate production of reactive oxygen species (ROS) in mouse mesenteric arteries, as previously described. Briefly, vessels were incubated with 5 μM of DHE for 20 min and subsequently observed under a fluorescence microscope (Zeiss). Images were acquired by a digital camera system (Olympus Soft Imaging Solutions). […] After treatment, vessels were incubated with Krebs solution containing 5 μM DHR123 for 30 min at 37° C., and then washed two times with PBS prior to fluorescence measurement using a fluorescence microplate reader (TECAN infinite 200 Pro).
as §1, §2

[3] = system: mice mesenteric arteries; assay: Vascular reactivity of phenylephrine-precontracted mice mesenteric arteries, alone or with selective inhibitors; format: cell-based; conditions: for direct vasorelaxant action of single anthocyanin, compared with Healthberry 865®: increasing doses 1-100 μg/mL; for vasorelaxant effect in presence of Akt inhibitor: Akt inh 1 μM; for vasorelaxant effect in presence of Akt inhibitor / vasorelaxant effect in presence of PI3K inhibitor LY294002: 1 h; for vasorelaxant effect in presence of L-NAME (eNOS inhibitor): L-NAME 300 μM, 30 min pre-treatment; for vasorelaxant effect in presence of PI3K inhibitor LY294002: LY294002 10 μM; for vasorelaxation reached by single anthocyanin: dose-response curves 1-100 μg/mL
[4] = system: nitric oxide production in mice mesenteric arteries; assay: Evaluation of NO production by DAF-FM in mesenteric arteries; format: cell-based; conditions: HB 50 μg/mL or 100 μg/mL; single anthocyanins 50 μg/mL; comparator acetylcholine 10^-6 M
Experimental: Production of NO was assessed as previously described (Carrizzo et al. 2016). Healthberry 865®-865 (100 μg/mL) or acetylcholine (10^-6 M) was administered to the mesenteric artery in the last 30 min of 4-amino-5-methylamino-2,7,-difluorofluorescein diacetate (DAF-FM) incubation, alone and after […] exposure to L-NAME (300 μmol/L, 30 min). Mesenteric segments were cut in 5-μm thick sections, observed under a fluorescence microscope, subsequently counterstained with haematoxylin and eosin and observed under a light microscope.
FIG. 2 D) show representative high-power micrographs of 10 μm sections of mice mesenteric arteries loaded for 2 h with […] (DAF-FM) reveal nitric oxide production after treatment with acetylcholine (Ach 10^-6 M) or HB (50 μg/mL) and after 30 min of pretreatment with L-NAME (300 μmol/L), counterstained with haematoxylin and eosin (HE). Scale bar, 50 μm. E) Semiquantitative analyses of immunoblots of mice mesenteric arteries treated with HB (100 μg/mL) alone, or HB plus Akt inhibitor or LY294002, columns are the mean±SEM of three independent experiments. Statistical analyses were performed using two-way ANOVA followed Bonferroni post-hoc test. *p<0.05; **p<0.01, ***p<0.001.
FIG. 7A-D show vascular response of phenylephrine-precontracted mice mesenteric arteries to increasing doses of a combination of anthocyanins mixed with a ratio 1:1. […]

| Compound | NADPH oxidase (NOX) activity after stimulation with Angiotensin II [1] | Angiotensin II-induced ROS formation [2] | direct vasorelaxant action of single anthocyanin, compared with Healthberry 865® [3] | also measured |
| --- | --- | --- | --- | --- |
| COc1cc(-c2[o+]c3cc(O)cc(O)c3cc2O[C@@H]2O[C@H](CO)[C@H](O)[C@H](O)[C@H]2O)cc(OC)c1O [MAL3-gal, Malvidin-3-galactoside] | able to reduce NOX activity | able to reproduce the antioxidant action | none of the single anthocyanins was able to evoke a dose-dependent vasorelaxation comparable |  |
| OC[C@H]1O[C@@H](Oc2cc3c(O)cc(O)cc3[o+]c2-c2cc(O)c(O)c(O)c2)[C@H](O[C@@H]2OC[C@@H](O)[C@H](O)[C@H]2O)[C@@H](O)[C@@H]1O [DP3-samb, Delphinidin-3-sambubioside] |  |  | able to reproduce the direct vasorelaxant effect | nitric oxide production (DAF-FM fluorescence) [4]: significant increase of nitric oxide production; vasorelaxant effect in presence of Dorsomorphin (AMPK inhibitor) [3]: inhibited; vasorelaxant effect in presence of Akt inhibitor [3]: did not influence; vasorelaxant effect in presence of L-NAME (eNOS inhibitor) [3]: significantly reduced; vasorelaxant effect in presence of PI3K inhibitor LY294002 [3]: inhibited |
| COc1cc(-c2[o+]c3cc(O)cc(O)c3cc2O[C@@H]2O[C@H](CO)[C@@H](O)[C@H](O)[C@H]2O)cc(O)c1O [PT3-glu, Petunidin-3-glucoside] |  |  | none of the single anthocyanins was able to evoke a dose-dependent vasorelaxation comparable |  |
| COc1cc(-c2[o+]c3cc(O)cc(O)c3cc2O[C@@H]2O[C@H](CO)[C@@H](O)[C@H](O)[C@H]2O)cc(OC)c1O [MAL3-glu, Malvidin-3-glucoside] | able to reduce NOX activity | able to reproduce the antioxidant action | none of the single anthocyanins was able to evoke a dose-dependent vasorelaxation comparable | rank of NOX activity reduction among single anthocyanins relative to Healthberry 865® [1]: most powerful anthocyanins |
| OC[C@H]1O[C@@H](Oc2cc3c(O)cc(O)cc3[o+]c2-c2ccc(O)c(O)c2)[C@H](O)[C@@H](O)[C@@H]1O [C3-glu, Cyanidin-3-glucoside] | able to reduce NOX activity | able to reproduce the antioxidant action | none of the single anthocyanins was able to evoke a dose-dependent vasorelaxation comparable | rank of NOX activity reduction among single anthocyanins relative to Healthberry 865® [1]: most powerful anthocyanins |
| C[C@@H]1O[C@@H](OC[C@H]2O[C@@H](Oc3cc4c(O)cc(O)cc4[o+]c3-c3ccc(O)c(O)c3)[C@H](O)[C@@H](O)[C@@H]2O)[C@H](O)[C@H](O)[C@H]1O [C3-rut, Cyanidin-3-rutinoside] | able to reduce NOX activity | able to reproduce the antioxidant action | none of the single anthocyanins was able to evoke a dose-dependent vasorelaxation comparable; also recorded: vasorelaxant effects | vasorelaxation reached by single anthocyanin [3]: ~36.5% |
| OC[C@H]1O[C@@H](Oc2cc3c(O)cc(O)cc3[o+]c2-c2cc(O)c(O)c(O)c2)[C@H](O)[C@@H](O)[C@H]1O [DP3-gal, Delphinidin-3-galactoside] |  |  | none of the single anthocyanins was able to evoke a dose-dependent vasorelaxation comparable; also recorded: vasorelaxant effects | vasorelaxation reached by single anthocyanin [3]: about 32.5% |
| OC[C@H]1OC(Oc2cc3c(O)cc(O)cc3[o+]c2-c2ccc(O)c(O)c2)[C@H](O)C(O)C1O (stereo partly shown) [C3-gal, Cyanidin-3-galactoside] |  |  | able to reproduce the direct vasorelaxant effect | nitric oxide production (DAF-FM fluorescence) [4]: significant increase of nitric oxide production; vasorelaxant effect in presence of Dorsomorphin (AMPK inhibitor) [3]: completely lost its vasorelaxant capability; vasorelaxant effect in presence of Akt inhibitor [3]: did not inhibit; vasorelaxant effect in presence of L-NAME (eNOS inhibitor) [3]: significantly reduced; vasorelaxant effect in presence of PI3K inhibitor LY294002 [3]: did not inhibit |
| OC[C@H]1O[C@@H](Oc2cc3c(O)cc(O)cc3[o+]c2-c2cc(O)c(O)c(O)c2)[C@H](O)[C@@H](O)[C@@H]1O [DP3-glu, Delphinidin-3-glucoside] | able to reduce NOX activity | able to reproduce the antioxidant action | none of the single anthocyanins was able to evoke a dose-dependent vasorelaxation comparable |  |
| Peonidin-3-galactoside [PEO3-gal] | able to reduce NOX activity | able to reproduce the antioxidant action | none of the single anthocyanins was able to evoke a dose-dependent vasorelaxation comparable |  |
| Oc1cc(O)c2cc(O[C@H]3OC[C@H](O)[C@H](O)[C@H]3O)c(-c3cc(O)c(O)c(O)c3)[o+]c2c1 [DP3-ara, Delphinidin-3-arabinoside] |  |  | none of the single anthocyanins was able to evoke a dose-dependent vasorelaxation comparable; also recorded: vasorelaxant effects |  |
